According to patent US20250136553A1, “ACYLSULFONAMIDE KAT6A INHIBITORS” (Olema Pharmaceuticals, Inc., priority 2023, published 2025):

Biological target: human-KAT6A (MYST domain 507-778 aa) (Homo sapiens (Human), UniProt Q92794)
Assay: KAT6A biochemical assay (TR-FRET)
Details: @ 1 μM; reported where IC50 could not be determined; read-out: Percent inhibition at specific concentration (KAT6A)
Outline: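 KAT6A MYST domain preincubated with compound 30 min at 25° C, then reacted 60 min at 25° C with 200 nM biotin-H4 peptide and 600 nM acetyl-CoA (final). Europium anti-acetyl-lysine/streptavidin-APC TR-FRET read (Ex 340, Em 615/665 nm); % inhibition from 665/615 ratio, IC50 by sigmoidal fit.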

human-KAT6A (MYST domain 507-778 aa), sequence (Q92794 507-778): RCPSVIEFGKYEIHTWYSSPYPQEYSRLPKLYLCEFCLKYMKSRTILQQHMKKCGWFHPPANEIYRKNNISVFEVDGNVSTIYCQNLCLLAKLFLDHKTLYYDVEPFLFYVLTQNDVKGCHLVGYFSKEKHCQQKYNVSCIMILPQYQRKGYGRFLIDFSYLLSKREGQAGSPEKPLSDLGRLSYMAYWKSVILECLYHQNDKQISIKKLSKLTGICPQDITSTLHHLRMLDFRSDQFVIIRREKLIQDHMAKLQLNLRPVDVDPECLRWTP

inhibition at 1 µM [%]	SMILES
46	COc1nc(C(=O)N[S@](=N)(=O)c2ccccc2F)ccc1Cn1cccn1 [Compound 307b, (S)-5-((1H-pyrazol-1-yl)methyl)-N-(2-fluorophenylsulfonimidoyl)-6-methoxypicolinamide]

Same assay, conditions: TR-FRET; histone H4 peptide 200 nM, acetyl-CoA 600 nM; read-out: KAT6A IC50

SMILES	IC50 [µM]
COc1nc(C(=O)N[S@@](=N)(=O)c2cccc3c2OCC3)ccc1Cn1cccn1 [Compound 303a, (R)-5-((1H-pyrazol-1-yl)methyl)-N-(2,3-dihydrobenzofuran-7-sulfonimidoyl)-6-methoxypicolinamide]	0.026
COc1nc(C(=O)N[S@](=N)(=O)c2cccc3c2OCC3)ccc1Cn1cccn1 [Compound 303b, (S)-5-((1H-pyrazol-1-yl)methyl)-N-(2,3-dihydrobenzofuran-7-sulfonimidoyl)-6-methoxypicolinamide]	0.108
COc1nc(C(=O)N[S@@](=N)(=O)c2ccccc2F)ccc1Cn1cccn1 [Compound 307a, (R)-5-((1H-pyrazol-1-yl)methyl)-N-(2-fluorophenylsulfonimidoyl)-6-methoxypicolinamide]	0.108
COc1cc(C(=O)NS(=O)(=O)c2cc(Cl)cc3c2OCC3)ccc1Cn1cccn1 [Compound 309, 4-((1H-pyrazol-1-yl)methyl)-N-((5-chloro-2,3-dihydrobenzofuran-7-yl)sulfonyl)-3-methoxybenzamide]	0.017
COc1cc(C(=O)NS(=O)(=O)c2ccc3c(c2)CCO3)ccc1Cn1cccn1 [Compound 310, 4-((1H-pyrazol-1-yl)methyl)-N-((2,3-dihydrobenzofuran-5-yl)sulfonyl)-3-methoxybenzamide]	0.112
COc1ccc(S(=O)(=O)NC(=O)c2ccc(Cn3cccn3)c(OC)c2)cc1Cl [Compound 311, 4-((1H-pyrazol-1-yl)methyl)-N-((3-chloro-4-methoxyphenyl)sulfonyl)-3-methoxybenzamide]	0.135
COc1cc(C(=O)NS(=O)(=O)c2ccccc2OC2CC2)ccc1Cn1cccn1 [Compound 313, 4-((1H-pyrazol-1-yl)methyl)-N-((2-cyclopropoxyphenyl)sulfonyl)-3-methoxybenzamide]	0.032
COc1cc(C(=O)NS(=O)(=O)c2cccc3c2OC(C)C3)ccc1Cn1cccn1 (stereo not drawn) [Compound 314, 4-((1H-pyrazol-1-yl)methyl)-3-methoxy-N-((2-methyl-2,3-dihydrobenzofuran-7-yl)sulfonyl)benzamide]	0.013

Results, then the compound that gave them:

IC50 [µM]	SMILES
0.313	COc1ccc(C)c(OC)c1[S@](=N)(=O)NC(=O)c1ccc(Cn2cccn2)c(OC)n1 [Compound 301a, (R)-5-((1H-pyrazol-1-yl)methyl)-N-(2,6-dimethoxy-3-methylphenylsulfonimidoyl)-6-methoxypicolinamide]
0.017	COc1ccc(C)c(OC)c1[S@@](=N)(=O)NC(=O)c1ccc(Cn2cccn2)c(OC)n1 [Compound 301b, (S)-5-((1H-pyrazol-1-yl)methyl)-N-(2,6-dimethoxy-3-methylphenylsulfonimidoyl)-6-methoxypicolinamide]
0.021	COc1cc(C(=O)N[S@@](=N)(=O)c2c(OC)ccc(Cl)c2OC)ccc1Cn1cccn1 [Compound 302a, (R)-4-((1H-pyrazol-1-yl)methyl)-N-(3-chloro-2,6-dimethoxyphenylsulfonimidoyl)-3-methoxybenzamide]
0.304	COc1cc(C(=O)N[S@](=N)(=O)c2c(OC)ccc(Cl)c2OC)ccc1Cn1cccn1 [Compound 302b, (S)-4-((1H-pyrazol-1-yl)methyl)-N-(3-chloro-2,6-dimethoxyphenylsulfonimidoyl)-3-methoxybenzamide]
0.018	COc1cc(C(=O)N[S@@](=N)(=O)c2c(OC)ccc(C)c2OC)ccc1Cn1cccn1 [Compound 304a, (R)-4-((1H-pyrazol-1-yl)methyl)-N-(2,6-dimethoxy-3-methylphenylsulfonimidoyl)-3-methoxybenzamide]
0.13	COc1cc(C(=O)N[S@](=N)(=O)c2c(OC)ccc(C)c2OC)ccc1Cn1cccn1 [Compound 304b, (S)-4-((1H-pyrazol-1-yl)methyl)-N-(2,6-dimethoxy-3-methylphenylsulfonimidoyl)-3-methoxybenzamide]
0.015	COc1cccc(F)c1[S@](=N)(=O)NC(=O)c1ccc(Cn2cccn2)c(OC)n1 [Compound 305a, (R)-5-((1H-pyrazol-1-yl)methyl)-N-(2-fluoro-6-methoxyphenylsulfonimidoyl)-6-methoxypicolinamide]
0.318	COc1cccc(F)c1[S@@](=N)(=O)NC(=O)c1ccc(Cn2cccn2)c(OC)n1 [Compound 305b, (S)-5-((1H-pyrazol-1-yl)methyl)-N-(2-fluoro-6-methoxyphenylsulfonimidoyl)-6-methoxypicolinamide]
0.012	COc1cc(C)cc(OC)c1[S@](=N)(=O)NC(=O)c1ccc(Cn2cccn2)c(OC)n1 [Compound 306a, (R)-5-((1H-pyrazol-1-yl)methyl)-N-(2,6-dimethoxy-4-methylphenylsulfonimidoyl)-6-methoxypicolinamide]
0.28	COc1cc(C)cc(OC)c1[S@@](=N)(=O)NC(=O)c1ccc(Cn2cccn2)c(OC)n1 [Compound 306b, (S)-5-((1H-pyrazol-1-yl)methyl)-N-(2,6-dimethoxy-4-methylphenylsulfonimidoyl)-6-methoxypicolinamide]
1.58	COc1nc(C(=O)N[S@@](=N)(=O)c2c(F)cccc2F)ccc1Cn1cccn1 [Compound 308a, (R)-5-((1H-pyrazol-1-yl)methyl)-N-(2,6-difluorophenylsulfonimidoyl)-6-methoxypicolinamide]
0.049	COc1nc(C(=O)N[S@](=N)(=O)c2c(F)cccc2F)ccc1Cn1cccn1 [Compound 308b, (S)-5-((1H-pyrazol-1-yl)methyl)-N-(2,6-difluorophenylsulfonimidoyl)-6-methoxypicolinamide]
